Reference: patent US9469854B2, “Pharmaceutical composition for treating liver diseases” (Academia Sinica, priority 2014, dated 2016)

What was measured:
Format in all cases: cell-based, human
[1] = test system: EEF2K; experiment: qRT-PCR mRNA expression in HepG2 cells; conditions: HepG2, 50 nM mimic transfection, 24 hours
Protocol: (§1) The human HepG2 cells and HEK 293T cells used in the following examples were originally obtained from the American Tissue Culture Collection (ATCC, USA). The human HCC HepG2 cell line was cultured in Minimum Essential Medium Eagle (Sigma) supplemented with 10% fetal bovine serum (FBS) (Invitrogen), 2.2 g/L of sodium bicarbonate (Sigma), 0.1 mM of non-essential amino acids (Caisson), 1 mM of sodium pyruvate (Invitrogen), and 10 of ml/L penicillin-streptomycin-amphotericin solution (Biological Industries). Human HEK-293T cells were maintained in high-glucose Dulbecco's modified eagle medium (Invitrogen) supplemented with 10% FBS and 3.7 g/L of sodium bicarbonate (Sigma). Both cell lines were cultured at 37° C. and 5% CO2.
(§2) Total RNA was extracted using a TRIZOL reagent (Invitrogen) according to the manufacturer's protocol. The total RNA quantity was measured using a NanoDrop ND-1000 spectrophotometer (Nanodrop Technologies). The total RNA quality and integrity were assayed using an Agilent 2100 bioanalyzer with an RNA 6000 nano kit (Agilent Technologies).
(§3) Total RNAs (1 μg) were reverse-transcribed into cDNA by using M-MuLV Reverse Transcriptase (Thermo) and Oligo(dT)12-18 primers (Invitrogen) according to the manufacturer's protocol. The cDNA were then used for a real-time PCR with a LightCycler 480 SYBR Green I Master (Roche) by using primers shown in the following Table 1. The gene expression levels were normalized to GAPDH levels.
(§4) The HepG2 cells were transfected at a density of 5×10^4 cells per well in a 24-well culture plates with either 50 nM of hsa-miR-21-3p (miR-21-3p mimic) or negative-control mimic (NC mimic), or with either 100 nM of hsa-miR-21-3p inhibitor (miR-21-3p inhibitor) or negative-control inhibitor (NC inhibitor) by using the DharmaFECT 4 transfection reagent (Thermo Scientific Dharmacon) according to the manufacturer's instructions. Cells were incubated for 24 h or 48 h with a microRNA mimic or inhibitor prior to RNA purification for gene expression analysis, and were incubated for 72 h for protein expression analysis.

[2] = test system: DGAT2; experiment: qRT-PCR mRNA expression in HepG2 cells; conditions: HepG2, miR-21-3p over-expressed, 24 h
Protocol: as §1, §2, §3, §4

[3] = test system: TMEM137; experiment: qRT-PCR mRNA expression in HepG2 cells; conditions: HepG2, 50 nM mimic transfection, 24 hours
Protocol: as §1, §2, §3, §4

[4] = test system: NBPF8; experiment: qRT-PCR mRNA expression in HepG2 cells; conditions: HepG2, 50 nM mimic transfection, 24 hours
Protocol: as §1, §2, §3, §4

[5] = test system: DIDO1; experiment: qRT-PCR mRNA expression in HepG2 cells; conditions: HepG2, 50 nM mimic transfection, 24 hours
Protocol: as §1, §2, §3, §4

[6] = test system: MAT2B; experiment: Western blot protein expression in HepG2 cells; conditions: HepG2, mimic transfection 72 h
Protocol: as §1, §4
(§5) Total cell lysates were prepared using a lysis buffer (7 M of urea, 4% CHAPS, 2 M of thiourea, 40 mM of Tris, 65 mM of dithioerythritol). Protein samples were separated using 12.5% SDS-PAGE and then transferred to PVDF membranes. The following primary antibodies were used: rabbit polyclone anti-MAT1A (1:800, GeneTex), anti-MAT2A (1:1000, GeneTex), anti-MAT2B (1:1000, GeneTex), anti-ACACB (1:1000, Sigma), anti-DGAT2 (1:1000, GeneTex) and anti-GAPDH (1:3000, GeneTex) and mouse monoclone anti-ACACA (1:1000, Millipore). The goat polyclonal anti-rabbit or anti-mouse IgG antibody conjugated with HRP (1:5000, abcam) was used as the secondary antibody. The bands were imaged using the LAS-4000 mini luminescent image analyzer (Fujifilm). The quantification of western blot analysis was achieved by using Image J software. The protein expression levels were normalized to the GAPDH levels.

[7] = test system: DGAT2; experiment: Western blot protein expression in HepG2 cells; conditions: HepG2, miR-21-3p over-expressed, 72 h
Protocol: as §1, §4, §5

[8] = test system: MAT1A; experiment: Western blot protein expression in HepG2 cells; conditions: HepG2, mimic transfection 72 h
Protocol: as §1, §4, §5

[9] = test system: ACACB; experiment: Western blot protein expression in HepG2 cells; conditions: HepG2, mimic transfection, 72 h
Protocol: as §1, §4, §5

[10] = test system: ACACA; experiment: Western blot protein expression in HepG2 cells; conditions: HepG2, mimic transfection, 72 h
Protocol: as §1, §4, §5

[11] = test system: MAT2A; experiment: Western blot protein expression in HepG2 cells; conditions: HepG2, mimic transfection 72 h
Protocol: as §1, §4, §5

[12] = test system: HepG2 cells; experiment: BrdU incorporation cell proliferation assay; conditions: HepG2, mimic 24 h plus additional 24 h BrdU, vs NC mimic
Protocol: The HepG2 cells were seeded at a density of 1×10^4 cells per well in a 96-well culture plate the day before transfection. After transfection with 50 nM of hsa-miR-21-3p mimic or the negative-control mimic for 24 h, the cultured media were refreshed with complete media containing the BrdU reagent, and incubated for an additional 24 hour for BrdU incorporation. The BrdU incorporation was quantified by using the BrdU cell proliferation colorimetric ELISA kit (abcam) according to the manufacturer's protocol and detected using the MRX II microplate reader (DYNEX).

[13] = test system: MAT2B 3′ UTR; experiment: Dual luciferase reporter assay in HepG2 cells
Protocol: Full-length 3′ UTRs of MAT2A and MAT2B were amplified from the genomic DNA of HepG2 cells through PCR.
The PCR products were then cloned into the pMIR-REPORT Luciferase miRNA Expression Reporter Vector (Invitrogen), and all inserted sequences in the 3′ UTR constructs were checked using the ABI PRISM DNA sequencer.
The mutagenesis of the target sequences of hsa-miR-21-3p in MAT2A and MAT2B 3′ UTRs was performed using the QuikChange site-directed mutagenesis kit (Agilent) according to the manufacturer's standard protocol.
All mutated sequences, including Site 1, Site 2 and the double mutation of the MAT2A and the 3′ UTR mutant construct of MAT2B, were checked through DNA sequencing.
The HEK-293T and HepG2 cells were seeded at a density of 5×10^4 cells per well in a 24-well culture plate the day before transfection. The HEK-293T and HepG2 cells were tri-transfected with (1) any one of the above-mentioned pMIR-REPORT-3′ UTR construction (300 ng), (2) the control Renilla luciferase reporter plasmid pRL-TK from Promega (10 ng), and (3) 50 nM of hsa-miR-21-3p mimic or negative-control mimic by using the Lipofectamine 2000 transfection reagent (Invitrogen) according to the manufacturer's instructions. Luciferase assays were performed after transfection for 48 h by using the Dual Luciferase reporter assay kit (Promega) and the Paradigm detection platform (Beckman) according to the manufacturer's protocol. The firefly luciferase activity was normalized relative to the Renilla luciferase activity.

Q: Which results are given for “hsa-miR-21-3p (CAACACCAGUCGAUGGGCUGU; listed as RNA, chemistry not given here) [miR-21-3p mimic]”?
A: decrease in mRNA expression of EEF2K [1]: > 50%; decrease in mRNA level of DGAT2 [2]: 2.3 fold; decrease in mRNA expression of TMEM137 [3]: < 50%; decrease in mRNA expression of NBPF8 [4]: < 50%; decrease in mRNA expression of DIDO1 [5]: < 50%; MAT2B protein expression decrease [6]: 3.4 fold; decrease in protein level of DGAT2 [7]: 3.3 fold; MAT1A protein expression increase [8]: 1.7 fold; decrease in protein expression of ACACB [9]: 1.6 fold; decrease in protein expression of ACACA [10]: 2.3 fold; MAT2A protein expression decrease [11]: 2.6 fold; inhibition of cellular proliferation (BrdU incorporation) [12]: 1.7 fold; luciferase reporter expression change, mutated MAT2B 3′ UTR ([13]; HepG2, seed match (+399-418) mutated): remained unchanged; luciferase reporter expression decrease, MAT2B 3′ UTR ([13]; HepG2, wild-type 3′ UTR, 50 nM mimic, 48 h): 1.4 fold
